Values after ≈ are worked out from the molar mass of the structure shown.

Common to all, as to experiment: In vitro antibacterial activity (MIC assay), broth microdilution
Holding throughout (format): cell-based
In general terms: In broth dilution the organism is exposed to a series of concentrations in liquid medium.

In one test the test system is S. pneumoniae ATCC49619. The following applies: Streptococcus pneumoniae, ATCC49619; read-out: S. pneumoniae ATCC49619 MIC. The protocol: (§1) Minimal inhibitory concentration (MIC) has been an indicator of in vitro antibacterial activity widely used in the art. The in vitro antibacterial activity of the compounds was determined by the broth microdilution method described by the National Committee for Clinical Laboratory Standards (NCCLS) in the NCCLS Document M7-A5, Vol. 20, No. 2, “Methods for Dilution Antimicrobial Susceptibility Test for Bacteria that Grow Aerobically—Fifth Edition”, which is incorporated herein by reference.
(§2) In this method, an aliquot of test compound from an 11-point series of 2-fold serial dilutions of compounds in 100% DMSO was added to wells in microdilution plates. The test organisms were prepared by adjusting the turbidity of actively growing broth cultures so that the final concentration of test organism after addition to wells with or without compounds was approximately 5×10^5 CFU/mL.
(§3) Following inoculation of the microdilution plates, the plates were incubated at 35° C. for 16-24 h and then scored for bacterial growth. […] The amount of growth in the wells containing the test compound was compared with the amount of growth in the growth-control wells (no test compound used) in each plate, and with the amount of growth in the wells containing control compounds (such as ciprofloxacin). Compounds of the present invention were tested against several bacterial strains. The MIC values (in μg/mL) are presented in Table 1 for Gram-negative (E. coli KL-16 (GSC strain 4245); data marked as (*) was obtained with E. coli ATCC25922) and Gram-positive bacteria (S. aureus ATCC13709; S. pneumoniae ATCC49619).

Test [1] deals with E. coli KL-16 (GSC strain 4245). The note with it: Escherichia coli. The protocol:
as §1, §2, §3

The test system of the next test is S. aureus ATCC13709. The following applies: Staphylococcus aureus, ATCC13709; read-out: S. aureus ATCC13709 MIC. The protocol: as §1, §2, §3

As a reminder, the MIC is the lowest concentration that inhibits growth of the organism. Regarding `COc1ccc2nccc(-n3cc4c(n3)CCC(NC(=O)c3cc5c(cc3F)OCCO5)C4)c2n1` (stereo not drawn) [Example 2, 7-Fluoro-2,3-dihydro-benzo[1,4]dioxine-6-carboxylic acid [2-(6-methoxy-[1,5]naphthyridin-4-yl)-4,5,6,7-tetrahydro-2H-indazol-5-yl]-amide], the figures for the MIC (with S. pneumoniae ATCC49619; in test [1]; in the test with S. aureus ATCC13709) were 8 µg/mL (≈ 16.8 µM), over 128 µg/mL and 0.5 µg/mL (≈ 1.05 µM), respectively.
For `COc1ccc2nccc(-n3cc4c(n3)CCC(NC(=O)c3ccc5c(c3)OCCCO5)C4)c2n1` (stereo not drawn) [Example 3, 3,4-Dihydro-2H-benzo[b][1,4]dioxepine-7-carboxylic acid [2-(6-methoxy-[1,5]naphthyridin-4-yl)-4,5,6,7-tetrahydro-2H-indazol-5-yl]-amide], the values for the MIC (in the test with S. pneumoniae ATCC49619; in test [1]; with S. aureus ATCC13709) were 4 µg/mL (≈ 8.48 µM), over 128 µg/mL and 1 µg/mL (≈ 2.12 µM), respectively.
Take `COc1ccc2nccc(-n3cc4c(n3)CCC(NC(=O)/C=C/c3ccccc3)C4)c2n1` (stereo not drawn) [Example 10, N-[2-(6-Methoxy-[1,5]naphthyridin-4-yl)-4,5,6,7-tetrahydro-2H-indazol-5-yl]-3-phenyl-acrylamide]: the values for the MIC (with S. pneumoniae ATCC49619; in test [1]; with S. aureus ATCC13709) were 2 µg/mL (≈ 4.7 µM), over 128 µg/mL and 0.25 µg/mL (≈ 0.588 µM), respectively.
For `COc1ccc2nccc(-n3cc4c(n3)CCC(NC(=O)c3ccc5c(c3)OCCO5)C4)c2c1` (stereo not drawn) [Example 16, 2,3-Dihydro-benzo[1,4]dioxine-6-carboxylic acid [2-(6-methoxy-quinolin-4-yl)-4,5,6,7-tetrahydro-2H-indazol-5-yl]-amide], the MIC in the test on S. pneumoniae ATCC49619 was 8 µg/mL (≈ 17.5 µM); in test [1], over 128 µg/mL; in the test on S. aureus ATCC13709 it was 2 µg/mL (≈ 4.38 µM).
For `COc1ccc2nccc(-n3cc4c(n3)CCC(NC(=O)c3cc5c(F)cccc5s3)C4)c2c1` (stereo not drawn) [Example 24, 4-Fluoro-benzo[b]thiophene-2-carboxylic acid [2-(6-methoxy-quinolin-4-yl)-4,5,6,7-tetrahydro-2H-indazol-5-yl]-amide], in that order: 4 µg/mL (≈ 8.46 µM), over 128 µg/mL and under 0.125 µg/mL.
As to `COc1ccc2nccc(-n3cc4c(n3)CC(NC(=O)c3ccc5c(c3)NC(=O)CS5)CC4)c2c1` (stereo not drawn) [Example 27, 3-Oxo-3,4-dihydro-2H-benzo[1,4]thiazine-6-carboxylic acid [2-(6-methoxy-quinolin-4-yl)-4,5,6,7-tetrahydro-2H-indazol-6-yl]-amide], the minimum inhibitory concentration (MIC) with S. pneumoniae ATCC49619 is 4 µg/mL (≈ 8.24 µM); in test [1], 4 µg/mL (≈ 8.24 µM); with S. aureus ATCC13709, 0.125 µg/mL (≈ 0.257 µM).
With `COc1ccc2nccc(-n3cc4c(n3)CCC(NC(=O)/C=C/c3ccccc3)C4)c2c1` (stereo not drawn) [Example 29, N-[2-(6-Methoxy-quinolin-4-yl)-4,5,6,7-tetrahydro-2H-indazol-5-yl]-3-phenyl-acrylamide], the MIC in the test on S. pneumoniae ATCC49619 is 4 µg/mL (≈ 9.42 µM); in test [1], over 128 µg/mL; with S. aureus ATCC13709 it was 1 µg/mL (≈ 2.36 µM).
For `COc1ccc2nccc(-n3cc4c(n3)CCC(NC(=O)/C=C/c3cccs3)C4)c2c1` (stereo not drawn) [Example 30, N-[2-(6-Methoxy-quinolin-4-yl)-4,5,6,7-tetrahydro-2H-indazol-5-yl]-3-thiophen-2-yl-acrylamide], in that order: 8 µg/mL (≈ 18.6 µM), over 128 µg/mL and 1 µg/mL (≈ 2.32 µM).
As to `COc1ccc2nccc(-n3cc4c(n3)CCC(NCc3ccc(N(C)C)cc3)C4)c2n1` (stereo not drawn) [Example 39, (4-Dimethylamino-benzyl)-[2-(6-methoxy-[1,5]naphthyridin-4-yl)-4,5,6,7-tetrahydro-2H-indazol-5-yl]-amine], the MIC was 1 µg/mL (≈ 2.33 µM) with S. pneumoniae ATCC49619, over 128 µg/mL in test [1] and 0.5 µg/mL (≈ 1.17 µM) with S. aureus ATCC13709.
On to `COc1ccc2nccc(-n3cc4c(n3)CCC(NCc3cc5c(cc3F)OCCO5)C4)c2c1` (stereo not drawn) [Example 51, (7-Fluoro-2,3-dihydro-benzo[1,4]dioxin-6-ylmethyl)-[2-(6-methoxy-quinolin-4-yl)-4,5,6,7-tetrahydro-2H-indazol-5-yl]-amine], for which the minimal inhibitory concentration (MIC) is 1 µg/mL (≈ 2.17 µM) in the test on S. pneumoniae ATCC49619, over 128 µg/mL in test [1] and 1 µg/mL (≈ 2.17 µM) in the test with S. aureus ATCC13709.
Turning to `COc1ccc2nccc(-n3cc4c(n3)CCC(NC/C(C)=C/c3ccccc3)C4)c2c1` (stereo not drawn) [Example 56, [2-(6-Methoxy-quinolin-4-yl)-4,5,6,7-tetrahydro-2H-indazol-5-yl]-(2-methyl-3-phenyl-allyl)-amine], the MIC in the test with S. pneumoniae ATCC49619 was determined as 2 µg/mL (≈ 4.71 µM); in test [1] it was 128 µg/mL (≈ 301 µM); in the test on S. aureus ATCC13709, 1 µg/mL (≈ 2.36 µM).
As to `COc1ccc2nccc(-n3cc4c(n3)CCC(NCC(=O)Nc3ccccc3)C4)c2n1` (stereo not drawn) [Example 59, 2-[2-(6-Methoxy-[1,5]naphthyridin-4-yl)-4,5,6,7-tetrahydro-2H-indazol-5-ylamino]-N-phenyl-acetamide], the MIC in the test with S. pneumoniae ATCC49619 was found to be 8 µg/mL (≈ 18.7 µM); in test [1], 128 µg/mL (≈ 299 µM); in the test with S. aureus ATCC13709, 1 µg/mL (≈ 2.33 µM).
For the compound `COc1ccc2nccc(-n3cc4c(n3)CCC(NCC(=O)Nc3ccc(Cl)c(Cl)c3)C4)c2c1` (stereo not drawn) [Example 62, N-(3,4-Dichloro-phenyl)-2-[2-(6-methoxy-quinolin-4-yl)-4,5,6,7-tetrahydro-2H-indazol-5-ylamino]-acetamide], the MIC in the test with S. pneumoniae ATCC49619 is 16 µg/mL (≈ 32.2 µM); in test [1], over 128 µg/mL; in the test on S. aureus ATCC13709, 1 µg/mL (≈ 2.01 µM).
Regarding `COc1ccc2nccc(-n3cc4c(n3)CCC(NCC(=O)c3ccc5c(c3)NC(=O)CO5)C4)c2c1` (stereo not drawn) [Example 63, 6-{2-[2-(6-Methoxy-quinolin-4-yl)-4,5,6,7-tetrahydro-2H-indazol-5-ylamino]-acetyl}-4H-benzo[1,4]oxazin-3-one], the MIC in the test with S. pneumoniae ATCC49619 turned out to be 0.8 µg/mL (≈ 1.65 µM); in test [1], 6 µg/mL (≈ 12.4 µM); in the test with S. aureus ATCC13709, 0.1 µg/mL (≈ 0.207 µM).
For `COc1ccc2nccc(-n3cc4c(n3)CCC(NC(=O)c3nc5ccccc5[nH]3)C4)c2c1` (stereo not drawn) [Example 71, 1H-Benzoimidazole-2-carboxylic acid [2-(6-methoxy-quinolin-4-yl)-4,5,6,7-tetrahydro-2H-indazol-5-yl]-amide], in that order: 8 µg/mL (≈ 18.2 µM), over 128 µg/mL and 2 µg/mL (≈ 4.56 µM).
Consider `COc1ccc2nccc(-n3cc4c(n3)CCC(NC(=O)c3cc5cc(Br)ccc5[nH]3)C4)c2c1` (stereo not drawn) [Example 76, 5-Bromo-1H-indole-2-carboxylic acid [2-(6-methoxy-quinolin-4-yl)-4,5,6,7-tetrahydro-2H-indazol-5-yl]-amide], for which the results for the MIC (with S. pneumoniae ATCC49619; in test [1]; in the test with S. aureus ATCC13709) were over 128 µg/mL, over 128 µg/mL and 2 µg/mL (≈ 3.87 µM), respectively.
As to `Cc1cc(-n2cc3c(n2)CCC(NC(=O)c2ccc4c(c2)NC(=O)CS4)C3)c2cc(F)ccc2n1` (stereo not drawn) [Example 82, 3-Oxo-3,4-dihydro-2H-benzo[1,4]thiazine-6-carboxylic acid [2-(6-fluoro-2-methyl-quinolin-4-yl)-4,5,6,7-tetrahydro-2H-indazol-5-yl]-amide], the results for the MIC (in the test with S. pneumoniae ATCC49619; in test [1]; in the test on S. aureus ATCC13709) were over 128 µg/mL, over 128 µg/mL and 8 µg/mL (≈ 16.4 µM), respectively.
In the case of `COc1ccc2nccc(-n3cc4c(n3)CCC(NCC(=O)NCc3ccccc3)C4)c2n1` (stereo not drawn) [Example 84, N-Benzyl-2-[2-(6-methoxy-[1,5]naphthyridin-4-yl)-4,5,6,7-tetrahydro-2H-indazol-5-ylamino]-acetamide], the MIC was 16 µg/mL (≈ 36.2 µM) with S. pneumoniae ATCC49619, over 128 µg/mL in test [1] and 2 µg/mL (≈ 4.52 µM) with S. aureus ATCC13709.
Turning to `COc1ccc2nccc(-n3cc4c(n3)CCC(NCc3cc(OC)c(OC)cc3F)C4)c2n1` (stereo not drawn) [Example 88, (2-Fluoro-4,5-dimethoxy-benzyl)-[2-(6-methoxy-[1,5]naphthyridin-4-yl)-4,5,6,7-tetrahydro-2H-indazol-5-yl]-amine], the MIC in the test on S. pneumoniae ATCC49619 is 8 µg/mL (≈ 17.3 µM); in test [1], over 128 µg/mL; in the test with S. aureus ATCC13709, 4 µg/mL (≈ 8.63 µM).
As for `COc1ccc2nccc(-n3cc4c(n3)CCC(NC(=O)/C=C/c3cc([N+](=O)[O-])ccc3Cl)C4)c2n1` (stereo not drawn) [Example 94, 3-(2-Chloro-5-nitro-phenyl)-N-[2-(6-methoxy-[1,5]naphthyridin-4-yl)-4,5,6,7-tetrahydro-2H-indazol-5-yl]-acrylamide], the MIC is over 128 µg/mL with S. pneumoniae ATCC49619, over 128 µg/mL in test [1] and 2 µg/mL (≈ 3.96 µM) in the test on S. aureus ATCC13709.
Take `COc1ccc2nccc(-n3ncc4c3CCC(NC(=O)c3cc5c(cc3Br)SCC(=O)N5)C4)c2c1` (stereo not drawn) [Example 98, 7-Bromo-3-oxo-3,4-dihydro-2H-benzo[1,4]thiazine-6-carboxylic acid [1-(6-methoxy-quinolin-4-yl)-4,5,6,7-tetrahydro-1H-indazol-5-yl]-amide]: the MIC in the test on S. pneumoniae ATCC49619 is 64 µg/mL (≈ 113 µM); in test [1], over 128 µg/mL; with S. aureus ATCC13709 it was 16 µg/mL (≈ 28.3 µM).
`COc1ccc2nccc(-n3ncc4c3CCC(NC(=O)c3cc5c(cc3C(F)(F)F)SCC(=O)N5)C4)c2c1` (stereo not drawn) [Example 99, 3-Oxo-7-trifluoromethyl-3,4-dihydro-2H-benzo[1,4]thiazine-6-carboxylic acid [1-(6-methoxy-quinolin-4-yl)-4,5,6,7-tetrahydro-1H-indazol-5-yl]-amide]: the MIC in the test with S. pneumoniae ATCC49619 was over 128 µg/mL; in test [1], over 128 µg/mL; with S. aureus ATCC13709 it was 2 µg/mL (≈ 3.61 µM).
As to `COc1ccc2nccc(-n3cc4c(n3)CCC(NC(=O)c3ccc(C)c([N+](=O)[O-])c3)C4)c2n1` (stereo not drawn) [Example 110, N-[2-(6-Methoxy-[1,5]naphthyridin-4-yl)-4,5,6,7-tetrahydro-2H-indazol-5-yl]-4-methyl-3-nitro-benzamide], the MIC with S. pneumoniae ATCC49619 is 8 µg/mL (≈ 17.4 µM); in test [1] it was over 128 µg/mL; with S. aureus ATCC13709 it was 0.25 µg/mL (≈ 0.545 µM).
